In ChEMBL document CHEMBL2057062, “Synthesis and biological evaluation of 4-phenylquinazoline-2-carboxamides designed as a novel class of potent ligands of the translocator protein” (J Med Chem, 2012):
The source made the active and inactive calls. No cut-off for these calls is given here.

How the values were obtained:
Translocator protein = Translocator protein (Rattus norvegicus, UniProt P16257); experiment: Displacement of [3H]PK11195 from TSPO in rat kidney mitochondrial membranes by competitive binding assay; assay type: cell membranes, Membrane
Rattus norvegicus = organism: Rattus norvegicus; experiment: Displacement of [3H]flumazenil from central benzodiazepine receptor in rat cerebral cortex membranes at 10 uM after 90 mins by competitive binding assay; assay type: cell membranes; conditions: Membrane
C6 = experiment: Increase in pregnenolone production in rat C6 glioma cells at 40 uM after 2 hrs by ELISA; assay type: functional, cell-based
[1] = target: Translocator protein (Rattus norvegicus) (UniProt P16257); experiment: Displacement of [3H]PK11195 from TSPO in rat kidney mitochondrial membranes at 1 uM by competitive binding assay; assay type: cell membranes; conditions: Membrane
U-87MG ATCC = experiment: Antiproliferative activity against human U87MG cells assessed as cell viability at 100 uM after 24 hrs by MTS assay; assay type: functional, cell-based

| Compound | Ki (Translocator protein) | inhibition (Rattus norvegicus) | Activity (C6) | inhibition [1] | Activity (U-87MG ATCC) |
| --- | --- | --- | --- | --- | --- |
| CCCCCCN(CCCCCC)C(=O)c1nc(-c2ccccc2Cl)c2ccccc2n1 | 65.1 nM | 0% | – | – | – |
| CCCCCCN(CCCCCC)C(=O)c1nc(-c2ccccc2)c2cc(Cl)ccc2n1 | 38.5 nM | 0% | – | – | – |
| O=C(c1nc(-c2ccccc2Cl)c2ccccc2n1)N1CCCCC1 | 46 nM | 0% | – | – | – |
| CCCCN(CCCC)C(=O)c1nc(-c2ccccc2)c2ccccc2n1 | 3.3 nM | 0% | Active | – | – |
| O=C(c1nc(-c2ccccc2)c2ccccc2n1)N1CCCCCC1 | – | 0% | – | 79% | – |
| CCC(C)NC(=O)c1nc(-c2ccccc2)c2cc(Cl)ccc2n1 (stereo unspecified) | – | 0% | – | 0% | – |
| O=C(c1nc(-c2ccccc2)c2cc(Cl)ccc2n1)N1CCCCC1 | – | 0% | – | 46% | – |
| CCOC(=O)c1ncn2c1CN(C)C(=O)c1cc(F)ccc1-2 | – | 0% | – | – | – |
| CN1C(=O)CN=C(c2ccc(Cl)cc2)c2cc(Cl)ccc21 | – | 0% | Active | – | – |
| CC(C)CN(C)C(=O)c1nc(-c2ccccc2Cl)c2cc(Cl)ccc2n1 | – | 0% | – | 77% | – |
| O=C(c1nc(-c2ccccc2Cl)c2cc(Cl)ccc2n1)N1CCCC1 | – | 0% | – | 73% | – |
| CCCCCCN(CCCCCC)C(=O)c1nc(-c2ccc(Cl)cc2)c2ccccc2n1 | 3.42 nM | 0% | Active | – | – |
| O=C(c1nc(-c2ccccc2Cl)c2cc(Cl)ccc2n1)N1CCCCCC1 | 415 nM | 0% | – | – | – |
| O=C(c1nc(-c2ccccc2)c2cc(Cl)ccc2n1)N1CCCCCC1 | – | 0% | – | 38% | – |
| CC(C)CN(C)C(=O)c1nc(-c2ccccc2Cl)c2ccccc2n1 | 6.98 nM | 0% | – | – | – |
| CCC(C)NC(=O)c1nc(-c2ccc(Cl)cc2)c2cc(Cl)ccc2n1 (stereo unspecified) | – | 0% | – | 49% | – |
| O=C(c1nc(-c2ccccc2Cl)c2ccccc2n1)N1CCCCCC1 | 8.77 nM | 0% | – | – | – |
| O=C(c1nc(-c2ccc(Cl)cc2)c2ccccc2n1)N1CCCCC1 | 493 nM | 0% | – | – | – |
| O=C(c1nc(-c2ccccc2)c2cc(Cl)ccc2n1)N1CCCC1 | – | 0% | – | 43% | – |
| CCC(C)N(C)C(=O)c1nc(-c2ccc(Cl)cc2)c2ccccc2n1 (stereo unspecified) | 2.67 nM | 0% | Active | – | – |
| CC(C)N(C)C(=O)c1nc(-c2ccccc2)c2cc(Cl)ccc2n1 | – | 0% | – | 0% | – |

| Compound | Ki (Translocator protein) | inhibition (Rattus norvegicus) | Activity (C6) | inhibition [1] | Activity (U-87MG ATCC) |
| --- | --- | --- | --- | --- | --- |
| CCC(C)N(C)C(=O)c1nc(-c2ccccc2Cl)c2ccccc2n1 (stereo unspecified) | 3.06 nM | 0% | Active | – | Active |
| CCC(C)NC(=O)c1nc(-c2ccccc2Cl)c2ccccc2n1 (stereo unspecified) | – | 0% | – | 63% | – |
| O=C(c1nc(-c2ccc(Cl)cc2)c2ccccc2n1)N1CCCCCC1 | 84.3 nM | 0% | – | – | – |
| CC[C@@H](C)N(C)C(=O)c1nc(-c2ccccc2Cl)c2ccccc2n1 | 1.55 nM | 0% | – | – | – |
| CCCCCCN(CCCCCC)C(=O)c1nc(-c2ccccc2Cl)c2cc(Cl)ccc2n1 | 30.4 nM | 0% | – | – | – |
| O=C(c1nc(-c2ccc(Cl)cc2)c2ccccc2n1)N1CCCC1 | 644 nM | 0% | – | – | – |
| CC(C)CN(C)C(=O)c1nc(-c2ccc(Cl)cc2)c2ccccc2n1 | 20.7 nM | 0% | – | – | – |
| CCC(C)NC(=O)c1nc(-c2ccccc2)c2ccccc2n1 (stereo unspecified) | – | 0% | – | 0% | – |
| CC(C)CN(C)C(=O)c1nc(-c2ccccc2)c2ccccc2n1 | 66.5 nM | 0% | – | – | – |
| CC(C)N(C)C(=O)c1nc(-c2ccccc2)c2ccccc2n1 | 70.3 nM | 0% | – | – | – |
| CCC(C)N(C)C(=O)c1nc(-c2ccc(Cl)cc2)c2cc(Cl)ccc2n1 (stereo unspecified) | 179 nM | 0% | – | – | – |
| CCCN(CCC)C(=O)Cc1c(-c2ccc(Cl)cc2)nc2ccc(Cl)cn12 | – | 0% | – | – | – |
| CC[C@@H](C)N(C)C(=O)c1nc(-c2ccccc2)c2ccccc2n1 | 6.41 nM | 0% | – | – | – |
| CCCCCCN(CCCCCC)C(=O)c1nc(-c2ccccc2)c2ccccc2n1 | 0.69 nM | 0% | inactive | – | Active |
| O=C(c1nc(-c2ccc(Cl)cc2)c2cc(Cl)ccc2n1)N1CCCCC1 | – | 0% | – | 76% | – |
| O=C(c1nc(-c2ccccc2Cl)c2ccccc2n1)N1CCCC1 | – | 0% | – | 70% | – |
| CC(C)N(C)C(=O)c1nc(-c2ccc(Cl)cc2)c2ccccc2n1 | 50.4 nM | 0% | – | – | – |
| CC(C)N(C)C(=O)c1nc(-c2ccc(Cl)cc2)c2cc(Cl)ccc2n1 | – | 0% | – | 39% | – |
| CCCCN(C)C(=O)c1nc(-c2ccccc2)c2ccccc2n1 | 46 nM | 0% | Active | – | – |
| CC(C)N(C)C(=O)c1nc(-c2ccccc2Cl)c2cc(Cl)ccc2n1 | – | 0% | – | 0% | – |
| O=C(c1nc(-c2ccccc2)c2ccccc2n1)N1CCCCC1 | – | 0% | – | 61% | – |

| Compound | Ki (Translocator protein) | inhibition (Rattus norvegicus) | Activity (C6) | inhibition [1] | Activity (U-87MG ATCC) |
| --- | --- | --- | --- | --- | --- |
| CCC(C)N(C)C(=O)c1nc(-c2ccccc2)c2ccccc2n1 (stereo unspecified) | 3 nM | 0% | – | – | – |
| CC[C@H](C)N(C)C(=O)c1nc(-c2ccc(Cl)cc2)c2ccccc2n1 | 2.51 nM | 0% | – | – | – |
| CC[C@@H](C)N(C)C(=O)c1nc(-c2ccc(Cl)cc2)c2ccccc2n1 | 1.57 nM | 0% | – | – | – |
| O=C(c1nc(-c2ccc(Cl)cc2)c2cc(Cl)ccc2n1)N1CCCC1 | – | 0% | – | 64% | – |
| CC[C@H](C)N(C)C(=O)c1nc(-c2ccccc2Cl)c2ccccc2n1 | 2.2 nM | 0% | – | – | – |
| CCCCCN(CCCCC)C(=O)c1nc(-c2ccccc2)c2ccccc2n1 | – | 0% | – | – | – |
| CN1C(=O)CN=C(c2ccccc2F)c2cc([N+](=O)[O-])ccc21 | – | 0% | – | – | – |
| O=C(c1nc(-c2ccccc2Cl)c2cc(Cl)ccc2n1)N1CCCCC1 | 273 nM | 0% | – | – | – |
| CC(C)N(C)C(=O)c1nc(-c2ccccc2Cl)c2ccccc2n1 | 12.5 nM | 0% | – | – | – |
| CCC(C)N(C)C(=O)c1nc(-c2ccccc2Cl)c2cc(Cl)ccc2n1 (stereo unspecified) | – | 0% | – | 43% | – |
| CCC(C)NC(=O)c1nc(-c2ccc(Cl)cc2)c2ccccc2n1 (stereo unspecified) | – | 0% | – | 37% | – |
| CC(C)CN(C)C(=O)c1nc(-c2ccccc2)c2cc(Cl)ccc2n1 | 842 nM | 0% | – | – | – |
| CC[C@H](C)N(C)C(=O)c1nc(-c2ccccc2)c2ccccc2n1 | 6.09 nM | 0% | – | – | – |
| CC(C)CN(C)C(=O)c1nc(-c2ccc(Cl)cc2)c2cc(Cl)ccc2n1 | 60.7 nM | 0% | – | – | – |
| CCC(C)NC(=O)c1nc(-c2ccccc2Cl)c2cc(Cl)ccc2n1 (stereo unspecified) | – | 0% | – | 0% | – |
| O=C(c1nc(-c2ccccc2)c2ccccc2n1)N1CCCC1 | – | 0% | – | 36% | – |
| CCC(C)N(C)C(=O)c1nc(-c2ccccc2)c2cc(Cl)ccc2n1 (stereo unspecified) | – | 0% | – | 22% | – |
| CCCCCCN(CCCCCC)C(=O)c1nc(-c2ccc(Cl)cc2)c2cc(Cl)ccc2n1 | 4.31 nM | 0% | – | – | – |
| CCC(C)N(C)C(=O)c1cc2ccccc2c(-c2ccccc2Cl)n1 (stereo unspecified) | – | 0% | Active | – | Active |
| CCCN(CCC)C(=O)c1nc(-c2ccccc2)c2ccccc2n1 | 36.8 nM | 0% | – | – | – |
| O=C(c1nc(-c2ccc(Cl)cc2)c2cc(Cl)ccc2n1)N1CCCCCC1 | – | 0% | – | 77% | – |
